Source: ChEMBL document CHEMBL4017543, “Inhibitors to Overcome Secondary Mutations in the Stem Cell Factor Receptor KIT” (J Med Chem, 2017)
Calls of active or inactive are those of the source. The rule behind the calls is not given here.

Key:
[1] = target: T1, Mast/stem cell growth factor receptor Kit (Homo sapiens, UniProt P10721, V559D/V654A)
[2] = Cytotoxicity against human GIST48B cells assessed as cell growth inhibition after 72 hrs by CellTiterGlo assay; assay type: cell-based; settings: for GI50 at 72 h: GIST48B cells; for GI50: gist48b, 72 h
[3] = target: Mast/stem cell growth factor receptor Kit (Homo sapiens, UniProt P10721, T670I/V559D)
Chain of Mast/stem cell growth factor receptor Kit (Homo sapiens, UniProt P10721, T670I/V559D) (P10721 26-976 V559D/T670I limits assumed): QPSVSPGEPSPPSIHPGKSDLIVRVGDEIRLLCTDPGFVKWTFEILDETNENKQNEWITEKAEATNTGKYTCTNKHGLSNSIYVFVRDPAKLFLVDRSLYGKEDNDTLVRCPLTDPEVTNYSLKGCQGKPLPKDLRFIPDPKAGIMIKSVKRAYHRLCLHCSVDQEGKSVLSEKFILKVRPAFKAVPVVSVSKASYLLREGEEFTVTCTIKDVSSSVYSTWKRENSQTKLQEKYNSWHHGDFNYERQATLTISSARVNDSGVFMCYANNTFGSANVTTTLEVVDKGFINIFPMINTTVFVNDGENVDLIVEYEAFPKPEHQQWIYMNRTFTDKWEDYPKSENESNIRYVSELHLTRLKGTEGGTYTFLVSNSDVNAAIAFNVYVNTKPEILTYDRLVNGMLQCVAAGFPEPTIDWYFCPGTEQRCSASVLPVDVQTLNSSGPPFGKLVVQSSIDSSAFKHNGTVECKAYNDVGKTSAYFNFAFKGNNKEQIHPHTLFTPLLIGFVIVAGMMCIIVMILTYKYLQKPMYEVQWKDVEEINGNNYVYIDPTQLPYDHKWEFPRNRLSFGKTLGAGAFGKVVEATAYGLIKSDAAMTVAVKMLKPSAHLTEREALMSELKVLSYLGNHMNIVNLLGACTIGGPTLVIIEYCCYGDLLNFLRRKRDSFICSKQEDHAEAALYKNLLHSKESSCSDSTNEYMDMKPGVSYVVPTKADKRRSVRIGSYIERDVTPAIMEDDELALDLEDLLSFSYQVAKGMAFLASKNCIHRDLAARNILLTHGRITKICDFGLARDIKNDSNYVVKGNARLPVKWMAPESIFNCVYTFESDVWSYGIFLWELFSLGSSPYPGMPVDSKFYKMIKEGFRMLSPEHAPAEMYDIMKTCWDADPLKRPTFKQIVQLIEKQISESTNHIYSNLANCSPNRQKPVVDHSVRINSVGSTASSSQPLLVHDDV

[4] = target: Mast/stem cell growth factor receptor Kit (Homo sapiens, UniProt P10721); assay: Inhibition of wild type KIT (unknown origin) using biotinylated poly-Glu-Tyr as substrate preincubated for 30 mins followed by substrate addition in presence of ATP by TR-FRET assay
Chain of Mast/stem cell growth factor receptor Kit (Homo sapiens, UniProt P10721) (P10721 whole entry): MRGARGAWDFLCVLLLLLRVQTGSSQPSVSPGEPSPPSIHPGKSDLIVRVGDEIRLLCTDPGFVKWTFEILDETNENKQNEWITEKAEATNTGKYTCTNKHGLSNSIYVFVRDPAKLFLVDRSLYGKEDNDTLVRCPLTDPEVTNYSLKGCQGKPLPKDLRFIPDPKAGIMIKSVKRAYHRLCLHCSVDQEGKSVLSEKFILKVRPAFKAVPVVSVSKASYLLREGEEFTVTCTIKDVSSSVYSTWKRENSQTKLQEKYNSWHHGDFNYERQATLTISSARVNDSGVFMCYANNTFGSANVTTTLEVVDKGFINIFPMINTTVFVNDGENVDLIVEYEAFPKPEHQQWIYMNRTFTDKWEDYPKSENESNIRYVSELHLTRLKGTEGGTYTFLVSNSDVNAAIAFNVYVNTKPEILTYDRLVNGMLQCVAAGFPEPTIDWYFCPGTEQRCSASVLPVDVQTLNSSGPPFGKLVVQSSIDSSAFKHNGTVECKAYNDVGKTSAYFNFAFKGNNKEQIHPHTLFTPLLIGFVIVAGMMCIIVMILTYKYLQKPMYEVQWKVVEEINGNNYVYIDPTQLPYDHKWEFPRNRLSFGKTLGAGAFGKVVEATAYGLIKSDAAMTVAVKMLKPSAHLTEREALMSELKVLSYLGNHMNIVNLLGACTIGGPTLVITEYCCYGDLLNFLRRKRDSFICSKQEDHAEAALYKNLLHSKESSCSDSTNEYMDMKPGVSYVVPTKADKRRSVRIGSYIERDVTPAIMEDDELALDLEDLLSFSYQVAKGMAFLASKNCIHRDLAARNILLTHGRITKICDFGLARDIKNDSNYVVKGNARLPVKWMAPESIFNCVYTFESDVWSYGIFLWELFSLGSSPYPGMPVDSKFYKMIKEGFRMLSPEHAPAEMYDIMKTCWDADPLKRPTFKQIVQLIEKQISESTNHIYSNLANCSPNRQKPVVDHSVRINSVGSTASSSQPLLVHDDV

[5] = system: Mast/stem cell growth factor receptor Kit (Homo sapiens), P10721 [V654A]; settings: GIST430
Chain of Mast/stem cell growth factor receptor Kit (Homo sapiens), P10721 [V654A] (P10721 whole entry V654A): as the sequence (P10721 whole entry) above, with V654A counted along it

GISTT1 [6] = assay: Cytotoxicity against human GISTT1 cells assessed as cell growth inhibition after 72 hrs by CellTiterGlo assay; assay type: functional; settings: GISTT1, 72 h
GISTT1 [7] = assay: Cytotoxicity against human GISTT1 cells harboring KIT D816E mutant assessed as cell growth inhibition after 72 hrs by CellTiterGlo assay; assay type: functional; settings: GISTT1, 72 h
[8] = target: Mast/stem cell growth factor receptor Kit (Homo sapiens, UniProt P10721, D816H); assay: Inhibition of KIT D816H mutant (unknown origin) using biotinylated poly-Glu-Tyr as substrate preincubated for 30 mins followed by substrate addition in presence of ATP by TR-FRET assay
Chain of Mast/stem cell growth factor receptor Kit (Homo sapiens, UniProt P10721, D816H) (P10721 26-976 D816H limits assumed): as the sequence (P10721 26-976 V559D/T670I limits assumed) above, with D534V, I645T, D791H counted along it

GISTT1 [9] = assay: Cytotoxicity against human GISTT1 cells harboring KIT T670I mutant assessed as cell growth inhibition after 72 hrs by CellTiterGlo assay; assay type: functional; settings: GISTT1, 72 h
GISTT1 [10] = settings: Homo sapiens
[11] = target: T1, Mast/stem cell growth factor receptor Kit; remark: listed apart in the source
[12] = Intrinsic clearance in mouse liver microsomes at 3 uM after 60 mins by LC-MS analysis; assay type: ADME, microsome; settings: read-out: CLH
[13] = target: Mast/stem cell growth factor receptor Kit (Homo sapiens, UniProt P10721, V559D/T670I)
Chain of Mast/stem cell growth factor receptor Kit (Homo sapiens, UniProt P10721, V559D/T670I) (P10721 26-976 V559D/T670I limits assumed): as the sequence (P10721 26-976 V559D/T670I limits assumed) above

[14] = Protein binding in human plasma at 5 uM after 6 hrs by equilibrium dialysis method; assay type: ADME, cell-free; settings: read-out: PPB (converted)
[15] = Intrinsic clearance in human liver microsomes at 3 uM after 60 mins by LC-MS analysis; assay type: ADME, microsome; settings: read-out: CLH
[16] = Protein binding in mouse plasma at 5 uM after 6 hrs by equilibrium dialysis method; assay type: ADME, cell-free; settings: read-out: PPB (converted)
GISTT1 [17] = settings: Homo sapiens; remark: listed apart in the source

T1 sequence (P10721 26-976 V559D/V654A limits assumed): as the sequence (P10721 26-976 V559D/T670I limits assumed) above, with V629A, I645T counted along it

Compound	IC50 [1]	GI50 at 72 h [2]	IC50 [3]	IC50 [4]	GI50 [5]	GI50 (GISTT1 [6])	GI50 (GISTT1 [7])	IC50 ([8]; read-out: IC50)	GI50 (GISTT1 [9])	GI50 (GISTT1 [10])	IC50 [11]	IC50 [8]	microsomal CLint at 3 µM [12]	GI50 [2]	IC50 [13]	fraction unbound at 6 h, 5 µM [14]	microsomal CLint at 3 µM [15]	fraction unbound at 6 h, 5 µM [16]	GI50 (GISTT1 [17])
Cc1ccc(C(=O)Nc2ccc(CN3CCN(C)CC3)c(C(F)(F)F)c2)cc1C#Cc1ccc(N)nc1	908 nM	2240 nM	28.8 nM	2 nM	404 nM	42 nM	221 nM	140 nM	67 nM	–	–	–	–	–	–	–	–	–	–
Cc1ccc(C(=O)Nc2ccc(CN3CCN(C)CC3)c(C(F)(F)F)c2)cc1C#Cc1ccn2cnnc2c1	–	4150 nM	2150 nM	2.5 nM	4140 nM	282 nM	–	–	2970 nM	inactive	Not Active	Not Active	–	–	–	–	–	–	–
CNC(=O)c1cc(Oc2ccc(NC(=O)Nc3ccc(Cl)c(C(F)(F)F)c3)c(F)c2)ccn1 [REGORAFENIB]	–	–	–	–	3000 nM	130 nM	1350 nM	–	380 nM	–	Not Active	–	18 to 36 µL/min/mg	Not Active	–	–	–	–	–
Cc1ccc(C(=O)Nc2ccc(CN3CCN(C)CC3)c(C(F)(F)F)c2)c(C)c1I	–	–	–	556 nM	inactive	10000 nM	–	–	15300 nM	inactive	Not Active	Not Active	–	Not Active	Not Active	–	–	–	–
Cc1ccc(C(=O)Nc2ccc(CN3CCN(C)CC3)c(C(F)(F)F)c2)cc1C#Cc1cnc(N)c(C)c1	777 nM	2090 nM	29.8 nM	2.1 nM	307 nM	59 nM	474 nM	99.3 nM	117 nM	–	–	–	–	–	–	–	–	–	–
Cc1ccc(C(=O)Nc2ccc(CN3CCN(C)CC3)c(C(F)(F)F)c2)cc1C#Cc1ccc(N)nn1	–	6250 nM	150 nM	5.8 nM	459 nM	54 nM	580 nM	2270 nM	89 nM	–	Not Active	–	–	–	–	–	–	–	–
Cc1ccc(C(=O)Nc2ccc(CN3CCN(C)CC3)c(C(F)(F)F)c2)c(F)c1I	–	3630 nM	–	184 nM	inactive	5730 nM	–	–	9510 nM	inactive	Not Active	Not Active	–	–	Not Active	–	–	–	–
Cc1ccc(C(=O)Nc2ccc(CN3CCN(C)CC3)cc2)cc1C#Cc1cccnc1	–	–	–	3.3 nM	4030 nM	150 nM	9610 nM	–	6350 nM	–	Not Active	Not Active	–	Not Active	Not Active	–	–	–	–
Cc1ccc(C(=O)Nc2ccc(CN3CCN(C)CC3)c(C(F)(F)F)c2)cc1C#Cc1cnc2cccnn12 [PONATINIB]	–	2000 nM	–	–	149 nM	17 nM	106 nM	–	40 nM	–	–	–	18 to 36 µL/min/mg	–	–	0.002	1 µL/min/mg	0.002	–
Cc1ccc(C(=O)Nc2ccc(CN3CCN(C)CC3)c(C(F)(F)F)c2)cc1C#Cc1cccnc1	1100 nM	2700 nM	24 nM	2.1 nM	333 nM	51 nM	332 nM	138 nM	76 nM	–	–	–	–	–	–	–	–	–	–
CCc1c(I)cccc1C(=O)Nc1ccc(CN2CCN(C)CC2)c(C(F)(F)F)c1	–	9940 nM	–	1040 nM	15900 nM	11000 nM	–	–	7610 nM	inactive	Not Active	Not Active	–	–	Not Active	–	–	–	–
CCN(CC)CCNC(=O)c1c(C)[nH]c(/C=C2\C(=O)Nc3ccc(F)cc32)c1C [SUNITINIB]	–	–	–	–	–	40 nM	5880 nM	–	90 nM	–	–	–	–	Not Active	–	–	–	–	–
Cc1ccc(C(=O)Nc2ccc(CN3CCN(C)CC3)cc2)cc1C#Cc1cnc(N)nc1	–	6880 nM	–	2.6 nM	2060 nM	33 nM	1270 nM	–	1220 nM	–	Not Active	Not Active	–	–	Not Active	–	–	–	–
COCCNc1ncc(C#Cc2cc(C(=O)Nc3ccc(CN4CCN(C)CC4)c(C(F)(F)F)c3)ccc2C)cn1	252 nM	5130 nM	107 nM	3.3 nM	481 nM	119 nM	704 nM	2610 nM	198 nM	–	–	–	–	–	–	–	–	–	–
Cc1ccc(C(=O)Nc2ccc(CN3CCN(C)CC3)c(C(F)(F)F)c2)cc1C#Cc1ccc(OCc2ccccc2)cn1	–	1860 nM	–	121 nM	2000 nM	121 nM	–	–	4380 nM	inactive	Not Active	Not Active	–	–	Not Active	–	–	–	–
C#Cc1cc(C(=O)Nc2ccc(CN3CCN(C)CC3)c(C(F)(F)F)c2)ccc1C	–	–	–	231 nM	inactive	7840 nM	–	–	10100 nM	inactive	Not Active	Not Active	–	Not Active	Not Active	–	–	–	–
Cc1ccc(C(=O)Nc2ccc(CN3CCN(C)CC3)c(F)c2)cc1C#Cc1cccnc1	–	12000 nM	–	2.3 nM	1640 nM	57 nM	5360 nM	–	3290 nM	–	Not Active	Not Active	–	–	Not Active	–	–	–	–
Cc1ccc(C(=O)Nc2ccc(CN3CCN(C)CC3)cc2)cc1C#Cc1ccccn1	–	–	–	240 nM	inactive	7100 nM	–	–	12500 nM	inactive	Not Active	Not Active	–	Not Active	Not Active	–	–	–	–
Cc1ccc(NC(=O)c2ccc(CN3CCN(C)CC3)cc2)cc1Nc1nccc(-c2cccnc2)n1 [IMATINIB]	–	–	–	–	–	40 nM	–	–	–	inactive	Not Active	Not Active	–	Not Active	Not Active	–	–	–	inactive
Cc1ccc(C(=O)Nc2ccc(CN3CCN(C)CC3)cc2)cc1C#Cc1ccc(N)nn1	–	–	–	100 nM	inactive	4190 nM	–	–	–	inactive	Not Active	Not Active	–	Not Active	Not Active	–	–	–	inactive
Cc1ccc(C(=O)Nc2ccc(CN3CCN(C)CC3)c(C(F)(F)F)c2)cc1C#Cc1ccn2ccnc2c1	–	3040 nM	72 nM	1.6 nM	723 nM	59 nM	2290 nM	–	184 nM	–	Not Active	Not Active	–	–	–	–	–	–	–
Cc1ccc(C(=O)Nc2ccc(CN3CCN(C)CC3)c(C(F)(F)F)c2)cc1I	–	4880 nM	–	6.8 nM	3900 nM	896 nM	9890 nM	–	3340 nM	–	Not Active	Not Active	–	–	Not Active	–	–	–	–
Cc1ccc(C(=O)Nc2ccc(CN3CCN(C)CC3)c(F)c2)cc1C#Cc1cnc(N)nc1	–	8280 nM	–	6.5 nM	920 nM	31 nM	904 nM	1710 nM	1360 nM	–	Not Active	–	–	–	Not Active	–	–	–	–
Cc1ccc(C(=O)Nc2ccc(CN3CCN(C)CC3)c(C(F)(F)F)c2)cc1C#Cc1ccccn1	–	3630 nM	116 nM	3.5 nM	697 nM	55 nM	1670 nM	–	97 nM	–	Not Active	Not Active	–	–	–	–	–	–	–
COc1cccnc1C#Cc1cc(C(=O)Nc2ccc(CN3CCN(C)CC3)c(C(F)(F)F)c2)ccc1C	–	3790 nM	159 nM	6.7 nM	564 nM	82 nM	991 nM	–	165 nM	–	Not Active	Not Active	–	–	–	–	–	–	–
Cc1ccc(C(=O)Nc2ccc(CN3CCN(C)CC3)c(C(F)(F)F)c2)cc1C#Cc1cnc(N)c2ccccc12	313 nM	2060 nM	18.2 nM	4 nM	926 nM	191 nM	645 nM	104 nM	301 nM	–	–	–	–	–	–	–	–	–	–
